Reference: article PMC10709440, “High-throughput ligand profile characterization in novel cell lines expressing seven heterologous insect olfactory receptors for the detection of volatile plant biomarkers” (Scientific Reports, 2023)
Read-outs that look alike come from different tables or passages of the source.

How the values were obtained:
Drosophila OR47a = target: T1, Drosophila OR47a (Drosophila melanogaster, UniProt P81921); test: Calcium ion fluorescence (GCaMP6) assay, OR47a stable HEK293 cell line; format: cell-based; details: for Average response: mean of biological replicates
T1 construct: expressed in transfected cells
T1 sequence (P81921 1-385): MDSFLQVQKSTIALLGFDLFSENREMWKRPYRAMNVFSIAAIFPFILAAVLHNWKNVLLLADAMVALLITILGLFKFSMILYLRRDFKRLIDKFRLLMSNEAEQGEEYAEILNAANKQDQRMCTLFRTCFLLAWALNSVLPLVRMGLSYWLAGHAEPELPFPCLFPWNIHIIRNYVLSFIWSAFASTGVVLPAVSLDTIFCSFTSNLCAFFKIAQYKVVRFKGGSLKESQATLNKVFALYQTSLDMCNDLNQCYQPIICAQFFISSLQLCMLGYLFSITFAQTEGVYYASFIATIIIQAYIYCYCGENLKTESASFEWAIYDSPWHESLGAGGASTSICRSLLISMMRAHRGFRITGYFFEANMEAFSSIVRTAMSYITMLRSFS
T1 sequence (Q9VNB5 1-486 partner): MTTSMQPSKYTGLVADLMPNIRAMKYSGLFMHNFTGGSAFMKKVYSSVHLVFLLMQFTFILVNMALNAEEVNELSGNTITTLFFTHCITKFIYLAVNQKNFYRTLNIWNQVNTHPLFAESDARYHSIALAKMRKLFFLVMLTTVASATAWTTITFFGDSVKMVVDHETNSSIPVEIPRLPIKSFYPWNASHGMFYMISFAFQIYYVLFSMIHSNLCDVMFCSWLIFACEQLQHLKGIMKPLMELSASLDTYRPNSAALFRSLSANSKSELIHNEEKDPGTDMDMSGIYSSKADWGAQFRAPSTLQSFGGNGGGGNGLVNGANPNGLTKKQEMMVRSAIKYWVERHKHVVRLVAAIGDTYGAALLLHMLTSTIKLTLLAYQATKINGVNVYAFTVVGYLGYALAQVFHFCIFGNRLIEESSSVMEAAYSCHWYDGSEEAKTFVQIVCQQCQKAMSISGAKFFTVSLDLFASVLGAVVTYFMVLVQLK
In short: (§1)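 HEK293 lines stably expressing each Drosophila OR with GCaMP6, doxycycline-induced (1 μg/mL) 48 or 72 h. Fluorescence recorded 5 s baseline then 30 s after VOC injection at pH 7.3; ΔF=(FMAX−F0)/F0, normalized to 50 µM VUAA1 response per line, triplicate wells averaged; concentration series 0.01–100 μM.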

Drosophila OR98a = target: T2, Drosophila OR98a (Drosophila melanogaster, UniProt Q9VAZ3); test: Calcium ion fluorescence (GCaMP6) assay, OR98a stable HEK293 cell line; format: cell-based; details: for Average response: average of biological replicates, fraction of VUAA1 response
T2 construct: expressed in transfected cells
T2 sequence (Q9VAZ3 1-397): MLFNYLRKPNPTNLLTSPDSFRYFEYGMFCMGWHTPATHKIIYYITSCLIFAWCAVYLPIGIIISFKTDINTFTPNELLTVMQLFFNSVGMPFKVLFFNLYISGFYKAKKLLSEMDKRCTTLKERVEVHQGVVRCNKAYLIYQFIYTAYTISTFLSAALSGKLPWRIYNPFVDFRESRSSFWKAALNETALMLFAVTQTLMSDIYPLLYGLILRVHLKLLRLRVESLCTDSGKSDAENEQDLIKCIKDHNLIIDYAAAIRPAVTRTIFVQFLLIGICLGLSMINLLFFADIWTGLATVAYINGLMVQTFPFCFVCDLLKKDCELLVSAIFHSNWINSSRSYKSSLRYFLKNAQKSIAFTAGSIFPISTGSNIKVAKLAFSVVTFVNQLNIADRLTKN
T2 sequence (Q9VNB5 1-486 partner): T1 sequence (Q9VNB5 1-486 partner)
In short: as §1

[1] = HEK293, read-out: OR47a response (VUAA1-normalized response)
[2] = OR47a cell line, odorant cc. 1 µM
[3] = OR47a cell line, odorant cc. 10 µM
[4] = OR47a cell line, odorant cc. 100 µM
[5] = concentration 1, normalized fluorescence change, values below 0.05 threshold given as 0
[6] = concentration 10, normalized fluorescence change, values below 0.05 threshold given as 0
[7] = concentration 100, normalized fluorescence change, values below 0.05 threshold given as 0
[8] = HEK293, read-out: Average response
[9] = HEK293, read-out: OR98a response (VUAA1-normalized response)
[10] = HEK293, read-out: OR47a Average response (VUAA1-normalized)
[11] = HEK293, read-out: OR98a Average response (VUAA1-normalized)
[12] = ligand concentration 1 (unit not given), threshold 0.05, below shown as 0
[13] = ligand concentration 10 (unit not given), threshold 0.05, below shown as 0
[14] = ligand concentration 100 (unit not given), threshold 0.05, below shown as 0

| Structure (SMILES) | activation at 1 µM (Drosophila OR47a; [1]) [%] | activation at 10 µM (Drosophila OR47a; [1]) [%] | activation at 100 µM (Drosophila OR47a; [1]) [%] | Average response (Drosophila OR47a; [2]) | Average response (Drosophila OR47a; [3]) | Average response (Drosophila OR47a; [4]) | DF norm AVERAGE OR47a (Drosophila OR47a; [5]) | DF norm AVERAGE OR47a (Drosophila OR47a; [6]) | DF norm AVERAGE OR47a (Drosophila OR47a; [7]) | activation at 1 µM (Drosophila OR98a; [8]) [%] | activation at 10 µM (Drosophila OR98a; [8]) [%] | activation at 100 µM (Drosophila OR98a; [8]) [%] | activation at 1 µM (Drosophila OR98a; [9]) [%] | activation at 10 µM (Drosophila OR98a; [9]) [%] | activation at 100 µM (Drosophila OR98a; [9]) [%] | DF norm AVERAGE OR98a (Drosophila OR98a; [5]) | DF norm AVERAGE OR98a (Drosophila OR98a; [6]) | DF norm AVERAGE OR98a (Drosophila OR98a; [7]) | also measured |
| --- | --- | --- | --- | --- | --- | --- | --- | --- | --- | --- | --- | --- | --- | --- | --- | --- | --- | --- | --- |
| CCCCCCCCC(CO)CCCCCC (stereo not drawn) [2-hexyl-1-decanol] | 0 | 0 | 0 | 0.00 | 0.05 | 0.00 | 0 | 0 | 0 | 0 | 14 | 2 | 0 | 14 | 0 | 0 | 0.1367 | 0 |  |
| C=C1[C@H]2CC[C@@H]3[C@H]2C(C)(C)CCC[C@]13C [(+)-longifolene] |  |  |  | 0.00 | 0.00 | 0.0238 | 0 | 0 | 0 |  |  |  |  |  |  | 0 | 0.1258 | 0 | OR47a response (VUAA1-normalized response) (Drosophila OR47a; VOC concentration 1 μM): 0.00; OR47a response (VUAA1-normalized response) (Drosophila OR47a; VOC concentration 10 μM): 0.00; OR47a response (VUAA1-normalized response) (Drosophila OR47a; VOC concentration 100 μM): 0.00; OR98a response (VUAA1-normalized response) (Drosophila OR98a; VOC concentration 1 μM): 0.00; OR98a response (VUAA1-normalized response) (Drosophila OR98a; VOC concentration 10 μM): 0.13; OR98a response (VUAA1-normalized response) (Drosophila OR98a; VOC concentration 100 μM): 0.00; Average response (Drosophila OR98a; cc. 1 µM, OR98a cell line): 0.0106; Average response (Drosophila OR98a; cc. 10 µM, OR98a cell line): 0.13; Average response (Drosophila OR98a; cc. 100 µM, OR98a cell line): 0.0176 |
| CCCCCCCO [1-heptanol] | 0 | 0 | 0 | 0.00 | 0.00 | 0.0219 | 0 | 0 | 0 | 4 | 5 | 0 | 0 | 5 | 0 | 0 | 0.05219 | 0 |  |
| CCCCCC(=O)CC [3-octanone] | 7.45 | 16 | 73 | 0.0745 | 0.16 | 0.73 | 0.07449 | 0.1581 | 0.7333 | 0 | 0 | 16 | 0 | 0 | 16 | 0 | 0 | 0.1573 | activation at 1 µM (Drosophila OR47a; [10]): 7%; activation at 10 µM (Drosophila OR47a; [10]): 16%; activation at 100 µM (Drosophila OR47a; [10]): 73%; activation at 1 µM (Drosophila OR98a; [11]): 0%; activation at 10 µM (Drosophila OR98a; [11]): 0%; activation at 100 µM (Drosophila OR98a; [11]): 16% |
| O=Cc1ccccc1 [benzaldehyde] | 0 | 0 | 0 | 0.03 | 0.00 | 0.00 |  |  |  | 0 | 0 | 4.43 | 0 | 0 | 0 |  |  |  | DF norm AVERAGE OR47a (Drosophila OR47a; [12]): 0; DF norm AVERAGE OR47a (Drosophila OR47a; [13]): 0; DF norm AVERAGE OR47a (Drosophila OR47a; [14]): 0; DF norm AVERAGE OR98a (Drosophila OR98a; [12]): 0; DF norm AVERAGE OR98a (Drosophila OR98a; [13]): 0; DF norm AVERAGE OR98a (Drosophila OR98a; [14]): 0 |
| Cc1ccccc1C [o-xylene] |  |  |  | 0.00 | 0.00 | 0.00 |  |  |  | 0 | 0 | 0 |  |  |  |  |  |  | OR47a response (VUAA1-normalized) at 1 μM (Drosophila OR47a; OR47a cell line, VOC concentration 1 μM): 0.00; OR47a response (VUAA1-normalized) at 10 μM (Drosophila OR47a; OR47a cell line, VOC concentration 10 μM): 0.00; OR47a response (VUAA1-normalized) at 100 μM (Drosophila OR47a; OR47a cell line, VOC concentration 100 μM): 0.00; DF norm AVERAGE OR47a (Drosophila OR47a; [12]): 0; DF norm AVERAGE OR47a (Drosophila OR47a; [13]): 0; DF norm AVERAGE OR47a (Drosophila OR47a; [14]): 0; OR98a response (VUAA1-normalized) at 1 μM (Drosophila OR98a; OR98a cell line, VOC concentration 1 μM): 0.00; OR98a response (VUAA1-normalized) at 10 μM (Drosophila OR98a; OR98a cell line, VOC concentration 10 μM): 0.00; OR98a response (VUAA1-normalized) at 100 μM (Drosophila OR98a; OR98a cell line, VOC concentration 100 μM): 0.00; DF norm AVERAGE OR98a (Drosophila OR98a; [12]): 0; DF norm AVERAGE OR98a (Drosophila OR98a; [13]): 0; DF norm AVERAGE OR98a (Drosophila OR98a; [14]): 0 |
| C=CC(O)CCCCC (stereo not drawn) [1-octen-3-ol] | 0 | 0 | 14 | 0.00 | 0.0268 | 0.14 | 0 | 0 | 0.1389 | 0 | 1.13 | 21 | 0 | 0 | 21 | 0 | 0 | 0.2102 | activation at 1 µM (Drosophila OR47a; [10]): 0%; activation at 10 µM (Drosophila OR47a; [10]): 3%; activation at 100 µM (Drosophila OR47a; [10]): 14%; activation at 1 µM (Drosophila OR98a; [11]): 0%; activation at 10 µM (Drosophila OR98a; [11]): 1%; activation at 100 µM (Drosophila OR98a; [11]): 21% |
